{"source": "patent US20080311657A1", "about": "“Killing Human Lymphoma and Leukemia Cancer Cells and Tcr-Activated Normal Human Cells By Dopamine D1r Agonists” (priority 2005, published 2008)", "test_in_all_cases": "Number of living cells counted by flow cytometry (FACSort) after D1R agonist", "format_in_all_cases": "cell-based", "key": {"[1]": {"tested_on": "resting normal human T-cells", "experimental": "Afterwards, the microtiter plates were placed in an incubator (37° C., humidified incubator, 5% CO2) for 3 days. Then, the number of living cells was evaluated by flow cytometry (the cells were counted by FACsort for a fixed time length of 1 min, in which 100 microliter of each sample was tested).\n(§1) FIGS. 31A and B are graphs showing that A 77636 hydrochloride kills much more TCR-activated (FIG. 31B) than resting normal (FIG. 31A) human T-cells. […] The cells were then transferred to the incubator for 72 hr incubation. At the end of the 72 hr incubation, the number of living cells in each well was evaluated by flow cytometry (the cells were counted by FACsort for a fixed time length of 1 min, in which 100 microliter of each sample was tested).\n(§2) Cell viability was tested afterwards."}, "[2]": {"tested_on": "TCR-activated normal human T-cells", "details": "10^−5 M, 72 hr", "experimental": "as §1\nNon-tissue culture treated 24-well plates (Falcon, Franklin Lakes, N.J.) were coated overnight at 4° C. with anti-CD3 and anti-CD28 monoclonal antibodies (mabs) (BD Pharmingen, San Jose, Calif.); ([…] in PBS). The wells were then washed with PBS, blocked for 1 hour at 37° C. (PBS/1% BSA), and washed again. The freshly purified normal human T-cells were resuspended in their respective fresh media and seeded in the anti-CD3/CD28 coated wells (1×10^6 per well), and the plates were incubated for 72 hours (37° C., humidified incubator, 5% CO2). Then, the cells and their media were collected from each well, transferred into 50 ml tubes, centrifuged (1200 rpm, 10 minutes) and both the TCR-activated cells and their culture media were collected and transferred into clean separate tubes.\nas §2"}, "[3]": {"tested_on": "Human chronic myelogenous leukemia cells (CML) (K-562)", "details": "for % of the cells killed: living cells counted 3 days later", "experimental": "(§3) Human chronic myelogenous leukemia cells (CML) (K-562) were seeded in 96 well plates (0.5 ml per well of 0.5 million cells/ml) and A 77636 hydrochloride was added and diluted 1:00 into the wells at starting concentrations of 10^−1M-10^−4M, so that the final concentration range tested was 10^−3M-10^−6M. Afterwards, the microtiter plates were placed in an incubator (37° C., humidified incubator, 5% CO2) for 3 days. Then, the number of living cells was evaluated by flow cytometry (the cells were counted by FACsort for a fixed time length of 1 min, in which 100 microliter of each sample was tested).\nas §3, with “68930” for “77636”\nas §3, with “SKF 38393 hydrobromide” for “A 77636 hydrochloride”\nHuman chronic myelogenous leukemia cells (CML) (K-562) were seeded in 96 well plates (0.5 ml per well of 0.5 million cells/ml) and A 77636 hydrochloride was added and diluted 1:00 into the wells, at a fixed starting concentration of 10^−2M, so that the final concentration tested was 10^−4M. The experiment was designed to test the effect of exposing the cells to the D1R agonist for 1 min, 15 min, 1 hr or 72 hr. Thus, 1 min, or 15 min or 1 hr after the addition of the D1R agonist, the corresponding cells were transferred into tubes, centrifuged (1000 rpm for 10 min), and the supernatant was removed. […] Thus, its medium was not replaced, and these cells and remained as such in the incubator for 72 hr. At the end of the 72 hr incubation, the number of living cells was evaluated by flow cytometry (the cells were counted by FACsort for a fixed time length of 1 min, in which 100 microliter of each sample was tested).\nas §2\nFor this purpose, the Jurkat T-cell leukemia line, the HuT-78 human T-lymphoma (cutaneous “Sezary” T-lymphoma) line, and the K-562 human Chronic-Myeloid Leukemia (CML) and Daudi Human B-lymphoma (Burkitt's lymphoma) lines were seeded in tissue culture wells (0.5 million cells/0.5 ml/well).\nCell survival/death was evaluated 3 days later by counting the number of living cells, using flow cytometry.\nThe effect of dopamine itself (that can of course activate all its D1R-5 receptors) was also tested. All of these molecules were tested at a similar concentration (10^−4 M). […] The specificity and restriction of the effect to the D1R is also seen in Tables 7 and 8."}}}
{"smiles": "Cl.NC[C@@H]1O[C@H](C23CC4CC(CC(C4)C2)C3)Cc2c1ccc(O)c2O", "note": "[A 77636 hydrochloride, (1R-cis)-1-(aminomethyl)-3,4-dihydro-3-tricyclo[3.3.1.13,7]dec-1-yl-[1H]-2-benzopyran-5,6-diol hydrochloride]", "values": [{"measurement": "Killing effect by number of living cells (FIGS. 25-27), in words", "setting": "[1]; 10^−3M-10^−6M, 3 days", "value": "significantly milder killing effect"}, {"measurement": "% of cells killed", "setting": "[1]; 10^−5 M, 72 hr", "value": 12, "unit": "%"}, {"measurement": "% of cells killed", "setting": "[2]", "value": 46, "unit": "%"}, {"measurement": "Killing of TCR-activated relative to resting normal human T-cells", "setting": "[2]", "value": 3.8, "unit": "fold"}, {"measurement": "Cell death by number of living cells (FIGS. 22-24), in words", "setting": "[3]; 10^−3M-10^−6M, 3 days", "value": "induces marked cell death"}, {"measurement": "% of the cells killed", "setting": "[3]; 10^−4M, exposure 1 minute then washed", "value": "≈ 48%"}, {"measurement": "% of the cells killed", "setting": "[3]; 10^−4M, exposure 15 minutes then washed", "value": 60, "unit": "%"}, {"measurement": "% of the cells killed", "setting": "[3]; 10^−4M, exposure 1 hour then washed", "value": 76, "unit": "%"}, {"measurement": "Killing, in words", "setting": "[3]; 10^−4M, incubation 72 hours", "value": "no additional value beyond the 1-hour effect"}, {"measurement": "Speed of cell death by number of living cells (FIG. 29), in words", "setting": "[3]; 10^−4M, exposure 1 min, 15 min, 1 hr or 72 hr", "value": "very rapid death"}]}
